The results in this text go back to PubChem BioAssay AID272 (DTP/NCI, 2004).

In the assay the test system is Lewis lung carcinoma i.m., BDF1 mice, T/C %. The assay is described as follows: NCI In Vivo Anticancer Drug Screen. Data for tumor model Lewis Lung Carcinoma (intramuscular) in B6D2F1 (BDF1) mice. The method, boiled down: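 Compound given to mice with transplantable tumours; survival or tumour size compared against the vehicle control group, reported as T divided by C.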

[1] abbreviates: endpoint: mean tumor weight, dose: 25.0 mg/kg/injection, schedule: Q01DX011 (ip), vehicle: other, higher = larger tumour.
Setting [2] is: endpoint: median survival time, dose: 12.5 mg/kg/injection, schedule: Q01DX011 (ip), vehicle: saline, higher = longer survival.
[3] abbreviates: endpoint: median survival time, dose: 25.0 mg/kg/injection, schedule: Q01DX011 (ip), vehicle: saline, higher = longer survival.
Setting [4] is: endpoint: median survival time, dose: 50.0 mg/kg/injection, schedule: Q01DX011 (ip), vehicle: saline, higher = longer survival.
[5] abbreviates: endpoint: median survival time, dose: 100.0 mg/kg/injection, schedule: Q01DX011 (ip), vehicle: saline, higher = longer survival.
Setting [6] is: endpoint: mean tumor weight, dose: 12.5 mg/kg/injection, schedule: Q01DX011 (ip), vehicle: saline, higher = larger tumour.
Where [7] appears, read: endpoint: mean tumor weight, dose: 25.0 mg/kg/injection, schedule: Q01DX011 (ip), vehicle: saline, higher = larger tumour.

The structures appear in SMILES notation. Several values for one entry are separate records, joined by “and”; a condition that tells them apart may be missing. Identical values can stand only once. Records with an inconclusive call do not appear.

Regarding `C[N+](C)(C)c1cc2c(nn1)Nc1ccccc1S2`, the T/C reads like this: (endpoint: mean tumor weight (est.), dose: 1.06 mg/kg/injection, schedule: Q01DX011 (ip), vehicle: saline, higher = larger tumour) 83 % of control; (endpoint: mean tumor weight (est.), dose: 2.12 mg/kg/injection, schedule: Q01DX011 (ip), vehicle: saline, higher = larger tumour) 88 % of control; (endpoint: mean tumor weight (est.), dose: 4.25 mg/kg/injection, schedule: Q01DX011 (ip), vehicle: saline, higher = larger tumour) 69 % of control; (endpoint: mean tumor weight (est.), dose: 8.5 mg/kg/injection, schedule: Q01DX011 (ip), vehicle: saline, higher = larger tumour) 110 % of control; (endpoint: median survival time, dose: 1.06 mg/kg/injection, schedule: Q01DX011 (ip), vehicle: saline, higher = longer survival) 103 % of control; (endpoint: median survival time, dose: 2.12 mg/kg/injection, schedule: Q01DX011 (ip), vehicle: saline, higher = longer survival) 100 % of control. For the same molecule, the T/C is 105 % of control (endpoint: median survival time, dose: 4.25 mg/kg/injection, schedule: Q01DX011 (ip), vehicle: saline, higher = longer survival) and 96 % of control (endpoint: median survival time, dose: 8.5 mg/kg/injection, schedule: Q01DX011 (ip), vehicle: saline, higher = longer survival).
With `COC1=C(N)C(=O)c2nc(-c3nc(C(=O)O)c(C)c(-c4ccc(OC)c(OC)c4O)c3N)ccc2C1=O`, the T/C is 105 % of control (endpoint: median survival time, dose: 0.02 mg/kg/injection, schedule: Q01DX011 (ip), vehicle: other, higher = longer survival); 92 % of control (endpoint: median survival time, dose: 0.02 mg/kg/injection, schedule: Q01DX011 (ip), vehicle: saline, higher = longer survival); 86 % of control (endpoint: median survival time, dose: 0.03 mg/kg/injection, schedule: Q01DX009 (ip), vehicle: saline, higher = longer survival); 96 % of control (endpoint: median survival time, dose: 0.03 mg/kg/injection, schedule: Q01DX011 (ip), vehicle: saline, higher = longer survival); 90 % of control (endpoint: median survival time, dose: 0.05 mg/kg/injection, schedule: Q01DX009 (ip), vehicle: saline, higher = longer survival); 90 % of control (endpoint: median survival time, dose: 0.05 mg/kg/injection, schedule: Q01DX011 (ip), vehicle: other, higher = longer survival). Further, the T/C is, setting by setting: (endpoint: median survival time, dose: 0.06 mg/kg/injection, schedule: Q01DX011 (ip), vehicle: saline, higher = longer survival) 94 % of control; (endpoint: median survival time, dose: 0.1 mg/kg/injection, schedule: Q01DX011 (ip), vehicle: other, higher = longer survival) 100 % of control; (endpoint: median tumor weight (est.), dose: 0.02 mg/kg/injection, schedule: Q01DX011 (ip), vehicle: saline, higher = larger tumour) 72 % of control; (endpoint: median tumor weight (est.), dose: 0.03 mg/kg/injection, schedule: Q01DX011 (ip), vehicle: saline, higher = larger tumour) 81 % of control; (endpoint: median tumor weight (est.), dose: 0.06 mg/kg/injection, schedule: Q01DX011 (ip), vehicle: saline, higher = larger tumour) 77 % of control; (endpoint: median tumor weight (est.), dose: 0.12 mg/kg/injection, schedule: Q01DX011 (ip), vehicle: saline, higher = larger tumour) 55 % of control.
As for `C[C@]12CC[C@@H]3c4ccc(O)cc4CC[C@H]3[C@@H]1C[C@@H](O)[C@@H]2O`, the T/C is 62 % of control (endpoint: mean tumor weight, dose: 3.13 mg/kg/injection, schedule: Q01DX011 (ip), vehicle: saline with Tween-80, higher = larger tumour); 108 % of control (endpoint: median survival time, dose: 0.78 mg/kg/injection, schedule: Q01DX011 (ip), vehicle: saline with Tween-80, higher = longer survival); 98 % of control (endpoint: median survival time, dose: 1.56 mg/kg/injection, schedule: Q01DX011 (ip), vehicle: saline with Tween-80, higher = longer survival); 112 % of control (endpoint: median survival time, dose: 3.12 mg/kg/injection, schedule: Q01DX011 (ip), vehicle: saline with Tween-80, higher = longer survival); 110 % of control (endpoint: median survival time, dose: 6.25 mg/kg/injection, schedule: Q01DX011 (ip), vehicle: saline with Tween-80, higher = longer survival).
As for `O=C(O)CCCc1ccc(N(CCCl)CCCl)cc1`, the T/C was 92 % of control (endpoint: mean tumor weight, dose: 2.5 mg/kg/injection, schedule: Q01DX011 (ip), vehicle: carboxymethylcellulose (CMC), higher = larger tumour); 56 % of control (endpoint: mean tumor weight, dose: 5.0 mg/kg/injection, schedule: Q01DX011 (ip), vehicle: carboxymethylcellulose (CMC), higher = larger tumour); 56 % of control (endpoint: mean tumor weight, dose: 10.0 mg/kg/injection, schedule: Q01DX011 (ip), vehicle: carboxymethylcellulose (CMC), higher = larger tumour); 98 % of control and 101 % of control (endpoint: median survival time, dose: 0.5 mg/kg/injection, schedule: Q01DX011 (ip), vehicle: saline, higher = longer survival); 91 % of control and 92 % of control (endpoint: median survival time, dose: 1.0 mg/kg/injection, schedule: Q01DX011 (ip), vehicle: saline, higher = longer survival); 92 % of control and 110 % of control (endpoint: median survival time, dose: 2.0 mg/kg/injection, schedule: Q01DX011 (ip), vehicle: saline, higher = longer survival). The T/C runs as follows: (endpoint: median survival time, dose: 2.5 mg/kg/injection, schedule: Q01DX011 (ip), vehicle: carboxymethylcellulose (CMC), higher = longer survival) 95 % of control; (endpoint: median survival time, dose: 4.0 mg/kg/injection, schedule: Q01DX011 (ip), vehicle: saline, higher = longer survival) 97 % of control and 118 % of control; (endpoint: median survival time, dose: 5.0 mg/kg/injection, schedule: Q01DX011 (ip), vehicle: carboxymethylcellulose (CMC), higher = longer survival) 122 % of control; (endpoint: median survival time, dose: 8.0 mg/kg/injection, schedule: Q01DX011 (ip), vehicle: saline, higher = longer survival) 88 % of control and 105 % of control; (endpoint: median survival time, dose: 10.0 mg/kg/injection, schedule: Q01DX011 (ip), vehicle: carboxymethylcellulose (CMC), higher = longer survival) 108 % of control.
For the molecule `c1ccc2c(c1)ccc1c[n+]3ccccc3cc12`, the T/C is 53 % of control (endpoint: mean tumor weight (est.), dose: 0.25 mg/kg/injection, schedule: Q01DX011 (ip), vehicle: saline, higher = larger tumour) and 47 % of control (endpoint: mean tumor weight (est.), dose: 0.5 mg/kg/injection, schedule: Q01DX011 (ip), vehicle: saline, higher = larger tumour).
Turning to `Nc1nc2n[nH]nc2c(=O)[nH]1`, the T/C under setting [1] is 81 % of control and the T/C (endpoint: mean tumor weight, dose: 100.0 mg/kg/injection, schedule: Q01DX011 (ip), vehicle: other, higher = larger tumour) is 64 % of control.
`COc1cc(C[C@H]2c3cc(OC)c(OC)cc3CCN2C)c(Oc2cc3c(cc2OC)-c2c(OC)c(OC)cc4c2[C@H](C3)N(C)CC4)cc1OC`: the T/C (endpoint: mean tumor weight, dose: 12.5 mg/kg/injection, schedule: Q01DX011 (ip), vehicle: other, higher = larger tumour) is 104 % of control; the T/C under setting [1] was 100 % of control; the T/C (endpoint: mean tumor weight, dose: 50.0 mg/kg/injection, schedule: Q01DX011 (ip), vehicle: other, higher = larger tumour) is 93 % of control; the T/C (endpoint: median survival time, dose: 12.5 mg/kg/injection, schedule: Q01DX011 (ip), vehicle: other, higher = longer survival) was 105 % of control; the T/C (endpoint: median survival time, dose: 25.0 mg/kg/injection, schedule: Q01DX011 (ip), vehicle: other, higher = longer survival) was 108 % of control; the T/C (endpoint: median survival time, dose: 50.0 mg/kg/injection, schedule: Q01DX011 (ip), vehicle: other, higher = longer survival) is 117 % of control.
For the molecule `CC(=O)n1cc(F)c(=O)[nH]c1=O`, the T/C by setting is: (endpoint: median survival time, dose: 6.0 mg/kg/injection, schedule: Q01DX011 (ip), vehicle: saline, higher = longer survival) 98 % of control; (endpoint: median survival time, dose: 12.0 mg/kg/injection, schedule: Q01DX011 (ip), vehicle: saline, higher = longer survival) 111 % of control; (endpoint: median survival time, dose: 24.0 mg/kg/injection, schedule: Q01DX011 (ip), vehicle: saline, higher = longer survival) 109 % of control.
On to `O=C(O)C1CSCN1` (stereo unspecified), for which the T/C is, setting by setting: under setting [2], 118 % of control; under setting [3], 105 % of control; under setting [4], 97 % of control; under setting [5], 105 % of control.
For the molecule `CN(N=O)C(=O)N[C@@H](C=O)[C@@H](O)[C@H](O)[C@H](O)CO`, the T/C runs as follows: under setting [6], 66 % of control; under setting [7], 95 % of control; (endpoint: mean tumor weight, dose: 100.0 mg/kg/injection, schedule: Q01DX011 (ip), vehicle: saline, higher = larger tumour) 61 % of control; (endpoint: mean tumor weight, dose: 200.0 mg/kg/injection, schedule: Q01DX011 (ip), vehicle: saline, higher = larger tumour) 74 % of control; under setting [2], 109 % of control; under setting [3], 95 % of control. The T/C under setting [4] is 90 % of control and 100 % of control; the T/C under setting [5] was 92 % of control; the T/C (endpoint: median survival time, dose: 200.0 mg/kg/injection, schedule: Q01DX011 (ip), vehicle: saline, higher = longer survival) is 121 % of control.
Regarding `CC1OC(=O)C(C2OC2C)=CC1O` (stereo unspecified), the T/C reads like this: (endpoint: mean tumor weight, dose: 6.25 mg/kg/injection, schedule: Q01DX011 (ip), vehicle: saline, higher = larger tumour) 93 % of control; under setting [6], 99 % of control; under setting [7], 78 % of control; (endpoint: median survival time, dose: 6.25 mg/kg/injection, schedule: Q01DX011 (ip), vehicle: saline, higher = longer survival) 102 % of control; under setting [2], 109 % of control; under setting [3], 107 % of control.
With `N[C@H](C(=O)O)[C@@H]1CC(Cl)=NO1`, the T/C is, setting by setting: (endpoint: median survival time, dose: 1.0 mg/kg/injection, schedule: Q01DX013 (ip), vehicle: saline, higher = longer survival) 101 % of control; (endpoint: median survival time, dose: 2.0 mg/kg/injection, schedule: Q01DX013 (ip), vehicle: saline, higher = longer survival) 100 % of control.
Turning to `Cc1cc[n+](CCc2ccccc2)cc1`, the T/C is, setting by setting: (endpoint: mean tumor weight (est.), dose: 12.5 mg/kg/injection, schedule: Q01DX011 (ip), vehicle: saline, higher = larger tumour) 76 % of control; (endpoint: mean tumor weight (est.), dose: 25.0 mg/kg/injection, schedule: Q01DX011 (ip), vehicle: saline, higher = larger tumour) 95 % of control; (endpoint: mean tumor weight (est.), dose: 50.0 mg/kg/injection, schedule: Q01DX011 (ip), vehicle: saline, higher = larger tumour) 75 % of control; under setting [2], 94 % of control; under setting [3], 102 % of control; under setting [4], 106 % of control.
